Assays:
human STING (hSTING) = biological target: T1, human STING (hSTING) (Homo sapiens, UniProt Q86WV6); assay: Inhibition test of intracellular human STING (hSTING) pathway using SEAP reporter cells (HEK-Blue ISG), stimulation with Compound 3; assay type: cell-based; set-up: hSTING inhibitory activity: scale not given here; conditions: Compound 3 10 nM stimulation, 21 hours
T1 construct: host or cells: HEK-Blue ISG cells (HEK293-derived SEAP reporter line)
Outline: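 HEK-Blue ISG cells with IRF-inducible SEAP reporter, pretreated 1 h with compound (final 0.1 to 10 μM), then stimulated with Compound 3 (final 10 nM) for 21 h at 37° C. Supernatant SEAP measured colorimetrically; IC50 from log-concentration regression, normalized to stimulated (100%) and unstimulated (0%) controls.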

[1] = test system: STING activation (IFN-β production in THP-1 cells); assay: Human IFN-β production inhibition test by cGAMP stimulation in THP-1 cells; assay type: cell-based; set-up: IFN-β bioinhibitory activity: scale not given here; conditions: 2'3'-cGAMP transfection, 18 hours, IFN-β ELISA; for IC50: Homo sapiens, read-out: IFN-β bioinhibitory activity
Outline: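 PMA-primed (100 nM, overnight) THP-1 cells pretreated 1 h with compound at 0.001 to 1 μM (0.1% DMSO), then transfected with 0.12 μg/well 2′3′-cGAMP and cultured 18 hours. Supernatant IFN-β measured by ELISA; IC50 by regression against log concentration, normalised to cGAMP-only (100%) and unstimulated (0%) controls.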

T1 sequence (Q86WV6 whole entry H232R): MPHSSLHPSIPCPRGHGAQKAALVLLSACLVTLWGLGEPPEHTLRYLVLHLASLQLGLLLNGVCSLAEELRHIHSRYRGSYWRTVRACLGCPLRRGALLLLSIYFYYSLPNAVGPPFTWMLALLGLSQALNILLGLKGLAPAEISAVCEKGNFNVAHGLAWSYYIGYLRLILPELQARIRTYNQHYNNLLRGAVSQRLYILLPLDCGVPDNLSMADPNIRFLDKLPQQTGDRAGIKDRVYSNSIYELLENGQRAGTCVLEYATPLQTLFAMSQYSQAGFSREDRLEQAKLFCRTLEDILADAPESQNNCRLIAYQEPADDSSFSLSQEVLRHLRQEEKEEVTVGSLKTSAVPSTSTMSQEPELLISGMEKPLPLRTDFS

SMILES	hSTING inhibitory activity (human STING (hSTING))	IFN-β bioinhibitory activity [1]	IC50 [1] [nM]
CC#CCn1c(Nc2c[nH]c3ccc(Cl)cc23)nc2cc(C(F)(F)F)ccc21 [Embodiment 228, 1-(But-2-yn-1-yl)-N-(5-rolo-1H-indol-3-yl)-5-(trifluoromethyl)-1H-benzo[d]imidazol-2-amine]	* *	* *	–
FC(F)(F)Oc1ccc2c(c1)nc(Nc1c[nH]c3ccc(Cl)cc13)n2C1CC1 [Embodiment 231, N-(5-Chloro-1H-indol-3-yl)-1-cyclopropyl-5-(trifluoromethoxy)-1H-benzo[d]imidazol-2-amine]	* * *	* *	–
FC(F)(F)c1ccc2c(c1)nc(Nc1c[nH]c3ccc(I)cc13)n2C1CC1 [Embodiment 232, 1-Cyclopropyl-N-(5-iodo-1H-indol-3-yl)-5-(trifluoromethyl)-1H-benzo[d]imidazol-2-amine]	* *	* *	–
Fc1cc(C(F)(F)F)cc2nc(Nc3c[nH]c4ccc(Cl)cc34)n(C3CC3)c12 [Embodiment 233, N-(5-Chloro-1H-indol-3-yl)-1-cyclopropyl-7-fluoro-5-(trifluoromethyl)-1H-benzo[d]imidazol-2-amine]	* * *	* *	–
OCCn1c(Nc2c[nH]c3ccc(Cl)cc23)nc2cc(C(F)(F)F)cc(F)c21 [Embodiment 236, 2-{2-[(5-chloro-1H-indol-3-yl)amino]-7-fluoro-5-(trifluoromethyl)-1H-benzo[d]imidazol-1-yl}ethane-1-oar]	* * *	* *	–
CN(C)n1c(Nc2c[nH]c3ccc(Cl)cc23)nc2cc(C(F)(F)F)cc(F)c21 [Embodiment 237, N2-(5-Chloro-1H-indol-3-yl)-7-fluoro-N1,N1-dimethyl-5-(trifluoromethyl)-1H-benzo[d] imidazole-1,2-diamine]	* * *	* *	–
CCCn1c(Nc2c[nH]c3ccc(Cl)cc23)nc2cc(C(F)(F)F)cc(F)c21 [Embodiment 238, N-(5-Chloro-1H-indol-3-yl)-7-fluoro-1-propyl-5-(trifluoromethyl)-1H-benzo[d]imidazol-2-amine]	* * *	* *	–
CCn1c(Nc2c[nH]c3ccc(Cl)cc23)nc2cc(C(F)(F)F)cc(F)c21 [Embodiment 240]	* * *	* *	–
C#CCn1c(Nc2c[nH]c3ccc(Cl)cc23)nc2cc(C(F)(F)F)cc(F)c21 [Embodiment 241, N-(5-Chloro-1H-indol-3-yl)-7-fluoro-1-(prop-2-yn-1-yl)-5-(trifluoromethyl)-1H-benzo[d] imidazole-2-amine]	* * *	* *	–
CC(C)n1c(Nc2c[nH]c3ccc(Cl)cc23)nc2cc(C(F)(F)F)cc(F)c21 [Embodiment 242, N-(5-Chloro-1H-indol-3-yl)-7-fluoro-1-isopropyl-5-(trifluoromethyl)-1H-benzo[d]imidazol-2-amine]	* * *	* *	–
CCCn1c(Nc2c[nH]c3ccc(Cl)cc23)nc2cc(OC(F)(F)F)ccc21 [Embodiment 244, N-(5-Chloro-1H-indol-3-yl)-1-propyl-5-(trifluoromethoxy)-1H-benzo [d]imidazol-2-amine]	* * *	* *	–
OCCn1c(Nc2c[nH]c3ccc(Cl)cc23)nc2cc(OC(F)(F)F)ccc21 [Embodiment 245, 2-{2-[(5-Chloro-1H-indol-3-yl)amino]-5-(trifluoromethoxy)-1H-benzo[d]imidazol-1-yl}ethan-1-oar]	* *	–	100 to 1000
Cn1c(Nc2c[nH]c3ccc(Cl)cc23)nc2cc(OC(F)(F)F)ccc21 [Embodiment 246, N-(5-Chloro-1H-indol-3-yl)-1-methyl-5-(trifluoromethoxy)-1H-benzo[d]imidazol-2-amine]	* * *	* * *	–
FC(F)(F)c1ccc2c(c1)nc(Nc1c[nH]c3ccc(Cl)cc13)n2N1CCCC1 [Embodiment 247, N-(5-Chloro-1H-indol-3-yl)-1-(pyrrolidin-1-yl)-5-(trifluoromethyl)-1H-benzo[d]imidazol-2-amine]	* *	–	100 to 1000
Cc1cc(C(F)(F)F)cc2nc(Nc3c[nH]c4ccc(Cl)cc34)n(C)c12 [Embodiment 248, N-(5-Chloro-1H-indol-3-yl)-1,7-dimethyl-5-(trifluoromethyl)-1H-benzo[d]imidazol-2-amine]	* * *	* *	–
Cn1c(Nc2c[nH]c3ccc(Cl)cc23)nc2cc(C(F)(F)F)cc(Cl)c21 [Embodiment 249, 7-Chloro-N-(5-chloro-1H-indol-3-yl)-1-methyl-5-(trifluoromethyl)-1 H-benzo[d]imidazol-2-amine]	* * *	* *	–
Cn1c(Nc2c[nH]c3ccc(Cl)cc23)nc2cc(C(F)(F)F)c(Cl)cc21 [Embodiment 250, 6-Chloro-N-(5-chloro-1H-indol-3-yl)-1-methyl-5-(trifluoromethyl)-1H-benzo[d]imidazol-2-amine]	* *	* *	–
CCn1c(Nc2c[nH]c3ccc(Cl)cc23)nc2cc(OC(F)(F)F)ccc21 [Embodiment 251, N-(5-Chloro-1H-indol-3-yl)-1-ethyl-5-(trifluoromethoxy)-1H-benzo [d]imidazol-2-amine]	* * *	* *	–
C#CCn1c(Nc2c[nH]c3ccc(Cl)cc23)nc2cc(OC(F)(F)F)ccc21 [Embodiment 253, N-(5-Chloro-1H-indol-3-yl)-1-(prop-2-yn-1-yl)-5-(trifluoromethoxy)-1H-benzo[d]imidazole-2-amine]	* * *	* *	–
Cn1c(Nc2c[nH]c3ccc(Cl)cc23)nc2cc(C(F)(F)F)c(F)cc21 [Embodiment 254, N-(5-Chloro-1H-indol-3-yl)-6-fluoro-1-methyl-5-(trifluoromethyl)-1H-benzo[d]imidazol-2-amine]	* * *	* *	–
CNn1c(Nc2c[nH]c3ccc(Cl)cc23)nc2cc(C(F)(F)F)ccc21.Cl [Embodiment 255, N2-(5-Chloro-1H-indol-3-yl)-N1-methyl-5-(trifluoromethyl)-1H-benzo[d]imidazole-1,2-diamine hydrochloride]	* * *	* *	–
Cc1ccc2[nH]cc(Nc3nc4cc(C(F)(F)F)cc(F)c4n3C)c2c1 [Embodiment 256, 7-fluoro-1-methyl-N-(5-methyl-1H-indol-3-yl)-5-(trifluoromethyl)-1H-benzo[d]imidazol-2-amine]	* * *	* *	–
Cn1c(Nc2c[nH]c3ccc(C#N)cc23)nc2cc(C(F)(F)F)cc(F)c21 [Embodiment 257, 3-{ [7-fluoro-1-methyl-5-(trifluoro methyl)-1H-benzo[d]imidazol-2-yl]amino}-1H-indole-5-carbonitrile]	* * *	* *	–
CN(C)n1c(Nc2c[nH]c3ccc(Cl)cc23)nc2cc(OC(F)(F)F)ccc21 [Embodiment 258, N2-(5-Chloro-1H-indol-3-yl)-N1, N1-dimethyl-5-(trifluoromethoxy)-1H-benzo[d]imidazole-1,2-diamine]	* * *	* *	–
N#CCCn1c(Nc2c[nH]c3ccc(Cl)cc23)nc2cc(C(F)(F)F)ccc21 [Embodiment 259, 3-{2-[(5-chloro-1H-indol-3-yl)amino]-5-(trifluoromethyl)-1H-benzo [d]imidazol-1-yl]propanenitrile]	* *	–	100 to 1000
OCCCn1c(Nc2c[nH]c3ccc(Cl)cc23)nc2cc(C(F)(F)F)ccc21 [Embodiment 260, 3-{2-[(5-Chloro-1H-indol-3-yl)amino]-5-(trifluoromethyl)-1H-benzo [d]imidazol-1-yl]propan-1-oar]	* *	–	100 to 1000
Cn1c(Nc2c[nH]c3cc(F)c(F)cc23)nc2cc(C(F)(F)F)cc(F)c21 [Embodiment 261, N-(5,6-difluoro-1H-indol-3-yl)-7-fluoro-1-methyl-5-(trifluoromethyl)-1H-benzo[d]imidazol-2-amine]	* * *	* *	–
Cn1c(Nc2c[nH]c3cc(F)c(Cl)cc23)nc2cc(C(F)(F)F)ccc21 [Embodiment 262, N-(5-Chloro-6-fluoro-1H-indol-3-yl)-1-methyl-5-(trifluoromethyl)-1 H-benzo[d]imidazol-2-amine]	* * *	* *	–
COc1cc2c(cc1C(F)(F)F)nc(Nc1c[nH]c3ccc(Cl)cc13)n2C [Embodiment 263, N-(5-Chloro-1H-indol-3-yl)-6-methoxy-1-methyl-5-(trifluoromethyl)-1H-benzo[d]imidazol-2-amine]	* *	–	100 to 1000
Cn1c(Nc2c[nH]c3ccc(Cl)cc23)nc2cc(C(F)(F)F)cc(C#N)c21 [Embodiment 264, 2-[(5-Chloro-1H-indol-3-yl)amino]-1-methyl-5-(trifluoromethyl)-1H-benzo[d]imidazole-7-carbonitrile]	* * *	–	100 to 1000

From patent US20240279205A1, “NOVEL BENZIMIDAZOLE DERIVATIVE” (Carna Biosciences, Inc., priority 2020, published 2024)
